According to patent US20080146602A1, “Thienopyridine Derivatives, Production Method and Use Thereof” (TAKEDA PHARMACEUTICAL COMPANY LIMITED, priority 2004, published 2008):
Marks after values point to notes of the source that are not given here.

Key:
[1] = system: Adjuvant Arthritis in Rat; assay: Effect on adjuvant arthritis in rat (footpad swelling suppression); assay type: in vivo; details: male Lewis rat, Freund's complete adjuvant; 0.3 mg/kg orally once a day for 14 days; edema volume of left hind paw, Day 14; n=6
Method: Effect on Adjuvant Arthritis in Rat
A male Lewis rat (7-week-old, Crea Japan Ltd.) was sensitized by an intracutaneous injection of 0.05 ml of Freund's complete adjuvant: 0.5% liquid paraffin suspension of dead tubercle bacillus) into the footpad of the right hind paw, and the test compound suspended in 0.5% methyl cellulose was orally administered once a day for 14 days. Immediately before sensitization (Day 0) and 14th day (Day 14), the edema volume of the left hind paw was measured by a plethysmometer (manufactured by Ugo Basile, Italy) and the footpad swelling suppression rate (%) relative to unsensitized rat was determined by the following formula.
The results are shown in mean ±S.E. of each group (n=6) and compared and detected by the Dunnett's method. In addition, less than 5% of the critical rate was taken as significant.

melting point [°C]	Compound	Swelling suppression rate (%) [1]
299 to 300	NC(=O)[C@H]1CCc2c(sc3nc(CN4C(=O)CCC4=O)c(Cl)c(-c4ccc(O)cc4)c23)C1 [Example 8, (7S)-3-Chloro-2-[(2,5-dioxo-1-pyrrolidinyl)methyl]-5,6,7,8-tetrahydro-4-(4-hydroxyphenyl)[1]benzothieno[2,3-b]pyridine-7-carboxamide]	
	COc1ccc(-c2c(Cl)c(CN3C(=O)CSC3=O)nc3sc4c(c23)CC[C@@H](C(N)=O)C4)cc1 (stereo in doubt) [Example 6-2, 3-chloro-2-[(2,4-dioxo-1,3-thiazolidin-3-yl)methyl]-5,6,7,8-tetrahydro-4-(4-methoxyphenyl)[1]benzothieno[2,3-b]pyridine-7-carboxamide]	87* %
282 to 283	NC(=O)[C@H]1CCc2c(sc3nc(CN4C(=O)CSC4=O)c(Cl)c(-c4ccc(O)cc4)c23)C1 [Example 9, (7S)-3-Chloro-2-[(2,4-dioxo-1,3-thiazolidin-3-yl)methyl]-5,6,7,8-tetrahydro-4-(4-hydroxyphenyl)[1]benzothieno[2,3-b]pyridine-7-carboxamide]	
	COc1ccc(-c2c(Cl)c(CN3C(=O)CCC3=O)nc3sc4c(c23)CC[C@@H](C(N)=O)C4)cc1 (stereo in doubt) [Example 5-2, 3-chloro-2-[(2,5-dioxo-1-pyrrolidinyl)methyl]-5,6,7,8-tetrahydro-4-(4-methoxyphenyl)[1]benzothieno[2,3-b]pyridine-7-carboxamide]	88* %
	COc1ccc(-c2c(Cl)c(CN3C(=O)COC3=O)nc3sc4c(c23)CC[C@H](C(N)=O)C4)cc1 [Example 4-2, (7S)-3-chloro-2-[(2,4-dioxo-1,3-oxazolidin-3-yl)methyl]-5,6,7,8-tetrahydro-4-(4-methoxyphenyl)[1]benzothieno[2,3-b]pyridine-7-carboxamide]	82* %
